In the supplement of paper PMC11919725:

Key:
[1] = system: Primary T cells CD4+ naive; experiment: confluency relative to DMSO, 18 h (ratio); higher = more viable
In short: (§1)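 Jurkat or primary CD4+/CD8+ T cells (naive, or activated 48 h with CD3/CD28 Dynabeads) were treated 18 h with compound at 1 nM–10 µM (log10 steps) at 37 °C, 5% CO2. Then 100 µl of suspension went into 96-well plates with IncuCyte Cytotox Dye and alamarBlue. Confluency came from IncuCyte phase-contrast imaging (×10, five images per well, hourly over 3 h) using the Basic Analyzer. Values are normalised to mean DMSO controls.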

Jurkat [2] = experiment: as above
In short: as §1

[3] = system: Primary T cells CD4+ naive; experiment: metabolic activity relative to DMSO, 18 h (ratio); higher = more viable
In short: (§2)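 Metabolic activity was expressed relative to the mean of vehicle control wells. Jurkat cells or primary CD4+/CD8+ T cells, either naive or activated for 48 h with CD3/CD28 Dynabeads, were exposed to compound from 1 nM to 10 µM in log10 steps for 18 h at 37 °C, 5% CO2. Aliquots of 100 µl of suspension were moved to 96-well plates containing alamarBlue (10% v/v final), and fluorescence was read after 3.5 h on a FluoStar Omega at excitation 544 nm and emission 584 nm.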

Jurkat [4] = experiment: as above
In short: as §2

[5] = system: Primary T cells CD4+ naive; experiment: cytotoxicity relative to DMSO, 18 h (ratio); higher = less cell death (drugs called cytotoxic fall below 1)
In short: (§3)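 Jurkat cells or primary CD4+/CD8+ T cells, either naive or activated for 48 h with CD3/CD28 Dynabeads, were exposed to compound from 1 nM to 10 µM in log10 steps for 18 h at 37 °C, 5% CO2. Aliquots of 100 µl of suspension were then moved to 96-well plates containing IncuCyte Cytotox Dye at 250 nM final. Cytotoxicity was read by IncuCyte fluorescence imaging, with signals corrected for confluency and normalised to the mean of control wells.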

Jurkat [6] = experiment: as above
In short: as §3

SMILES	confluency ([1]; 1 nM)	confluency ([1]; 10 nM)	confluency ([1]; 100 nM)	confluency ([1]; 1000 nM)	confluency ([1]; 10000 nM)	confluency (Jurkat [2]; 1 nM)	confluency (Jurkat [2]; 10 nM)	confluency (Jurkat [2]; 100 nM)	confluency (Jurkat [2]; 1000 nM)	confluency (Jurkat [2]; 10000 nM)	metabolic activity ([3]; 1 nM)	metabolic activity ([3]; 10 nM)	metabolic activity ([3]; 100 nM)	metabolic activity ([3]; 1000 nM)	metabolic activity ([3]; 10000 nM)	metabolic activity (Jurkat [4]; 1 nM)	metabolic activity (Jurkat [4]; 10 nM)	metabolic activity (Jurkat [4]; 100 nM)	metabolic activity (Jurkat [4]; 1000 nM)	metabolic activity (Jurkat [4]; 10000 nM)	cytotoxicity ([5]; 1 nM)	cytotoxicity ([5]; 10 nM)	cytotoxicity ([5]; 100 nM)	cytotoxicity ([5]; 1000 nM)	cytotoxicity ([5]; 10000 nM)	cytotoxicity (Jurkat [6]; 1 nM)	cytotoxicity (Jurkat [6]; 10 nM)	cytotoxicity (Jurkat [6]; 100 nM)	cytotoxicity (Jurkat [6]; 1000 nM)	cytotoxicity (Jurkat [6]; 10000 nM)
CCCCc1nc2cc(C=CC(=O)NO)ccc2n1CCN(CC)CC [Pracinostat]	0.744	1.13	1.29	1.05	0.873	0.945	0.95	0.862	1.04	0.908	0.982	0.951	0.917	0.946	0.877	1.09	0.964	1.03	0.737	0.621	0.794	1.19	1.38	1.03	0.897	0.918	0.836	0.799	1.02	0.852
NC(=O)C1CCCc2c1[nH]c1ccc(Cl)cc21 (stereo not given) [Selisistat]						0.962	0.984	0.973	0.992	0.992						1.06	1.02	0.995	1.09	1.05						0.974	0.979	0.932	1.09	0.974
Cn1cnc2c(F)c(Nc3ccc(Br)cc3Cl)c(C(=O)NOCCO)cc21 [Selumetinib]						0.985	0.965	0.988	0.983	0.974						1.05	1.04	1.03	1.03	1.07						1.01	0.984	1.06	1.02	0.959
c1ccc2c(CCNc3ccc(Nc4ccncc4)cc3)c[nH]c2c1 [Serdemetan]						1.02	1.02	1.06	1.04	0.841						1.04	0.963	0.905	0.863	0.816						1.08	1.1	1.21	1.06	0.829
CNC1CC2OC(C)(C1OC)n1c3ccccc3c3c4c(c5c6ccccc6n2c5c31)C(=O)NC4 (stereo not given) [Staurosporine]						0.829	0.908	0.897	0.964	0.876						0.916	1.06	0.979	1.02	0.995						0.826	0.955	0.959	1.04	0.913
CCN(CC)CCNC(=O)c1c(C)[nH]c(C=C2C(=O)Nc3ccc(F)cc32)c1C [Sunitinib]						0.994	0.89	0.969	0.836	0.635						1.07	0.92	0.991	0.874	0.795						0.992	0.874	1.01	0.752	0.546
Cn1cc(-c2nc(NC3CCCCC3N)c(F)c3c2C(=O)NC3)cn1 (stereo not given) [TAK-659]						0.984	1.04	0.979	0.946	0.896						1.07	1.12	0.932	0.867	0.955						0.994	1.11	0.902	0.949	0.883
CC(C)(CNC(=O)c1cccc(-c2noc(C(F)(F)F)n2)c1)c1coc(-c2ccccc2)n1 [TMP195]						1.02	0.934	1.08	1.04	1.02						1.02	0.877	0.921	0.94	1.02						0.995	0.915	1.12	1.06	1.06
O=C(NCC1(c2nc(-c3ccccc3)cs2)CCOCC1)c1cccc(-c2noc(C(F)(F)F)n2)c1 [TMP269]						0.997	1.08	0.985	0.978	0.947						0.923	0.987	1.04	1.06	1.03						0.968	1.06	0.951	0.93	0.891
CC(=O)Nc1ccc(C(=O)Nc2ccccc2N)cc1 [Tacedinaline]						0.975	1.05	1.01	0.986	0.994						0.978	0.926	0.943	0.899	0.757						0.902	0.979	0.958	0.905	0.942
Cn1ncnc1C1c2n[nH]c(=O)c3cc(F)cc(c23)NC1c1ccc(F)cc1 (stereo not given) [Talazoparib]						0.992	1	0.967	0.939	0.897						1.02	0.958	1.05	1.07	1.03						0.986	1.01	0.96	0.97	0.848
C=CCNC1=C2CC(C)CC(OC)C(O)C(C)C=C(C)C(OC(N)=O)C(OC)C=CC=C(C)C(=O)NC(=CC1=O)C2=O (stereo not given) [Tanespimycin]						0.985	0.872	0.982	0.7	0.734						0.935	0.939	0.999	0.835	0.795						0.913	0.813	0.913	0.585	0.628
COc1cccc2c1c(O)c(C(=O)N(C)c1ccc(C(F)(F)F)cc1)c(=O)n2C [Tasquinimod]						0.994	0.999	0.975	1.02	1						1.06	0.914	0.979	1.17	1.12						1	0.998	0.97	1.2	1.15
